Source: PubChem BioAssay (NCI)
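Interpolation was linear, between the two tested concentrations surrounding the appropriate level; five concentrations were tested over 48 hours in 96-well plates. Here, GI50 denotes the concentration required for 50% inhibition of growth. TGI: concentration producing complete growth inhibition.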

Columns and labels:
Assay in all cases: DTP human tumour cell line panel, 48 h
A498 renal = tested on: A498 renal
A549 NSCLC = tested on: A549 NSCLC
ACHN renal = tested on: ACHN renal
BT-549 breast = tested on: BT-549 breast
CAKI-1 renal = tested on: CAKI-1 renal
CCRF-CEM leukemia = tested on: CCRF-CEM leukemia
COLO 205 colon = tested on: COLO 205 colon
DU-145 prostate = tested on: DU-145 prostate
EKVX NSCLC = tested on: EKVX NSCLC
HCC-2998 colon = tested on: HCC-2998 colon
HCT-116 colon = tested on: HCT-116 colon
HCT-15 colon = tested on: HCT-15 colon
HL-60(TB) leukemia = tested on: HL-60(TB) leukemia
HOP-62 NSCLC = tested on: HOP-62 NSCLC
HOP-92 NSCLC = tested on: HOP-92 NSCLC
HS 578T breast = tested on: HS 578T breast
HT29 colon = tested on: HT29 colon
IGROV1 ovarian = tested on: IGROV1 ovarian
K-562 leukemia = tested on: K-562 leukemia
KM12 colon = tested on: KM12 colon
LOX IMVI melanoma = tested on: LOX IMVI melanoma
M14 melanoma = tested on: M14 melanoma
MALME-3M melanoma = tested on: MALME-3M melanoma
MCF7 breast = tested on: MCF7 breast
MDA-MB-231 breast = tested on: MDA-MB-231 breast
MDA-MB-435 = tested on: MDA-MB-435
MDA-N = tested on: MDA-N
MOLT-4 leukemia = tested on: MOLT-4 leukemia
NCI-H23 lung = tested on: NCI-H23 lung
NCI-H460 lung = tested on: NCI-H460 lung
NCI-H522 lung = tested on: NCI-H522 lung
NCI/ADR-RES ovarian = tested on: NCI/ADR-RES ovarian
OVCAR-3 ovarian = tested on: OVCAR-3 ovarian
OVCAR-4 ovarian = tested on: OVCAR-4 ovarian
OVCAR-5 ovarian = tested on: OVCAR-5 ovarian
OVCAR-8 ovarian = tested on: OVCAR-8 ovarian
PC-3 prostate = tested on: PC-3 prostate
RPMI-8226 leukemia = tested on: RPMI-8226 leukemia
RXF 393 renal = tested on: RXF 393 renal
SF-268 CNS = tested on: SF-268 CNS
SF-295 CNS = tested on: SF-295 CNS
SF-539 CNS = tested on: SF-539 CNS
SK-MEL-2 melanoma = tested on: SK-MEL-2 melanoma
SK-MEL-28 melanoma = tested on: SK-MEL-28 melanoma
SK-MEL-5 melanoma = tested on: SK-MEL-5 melanoma
SK-OV-3 ovarian = tested on: SK-OV-3 ovarian
SN12C renal = tested on: SN12C renal
SNB-19 CNS = tested on: SNB-19 CNS
SW-620 colon = tested on: SW-620 colon
T-47D breast = tested on: T-47D breast
TK-10 renal = tested on: TK-10 renal
U251 CNS = tested on: U251 CNS
UACC-257 melanoma = tested on: UACC-257 melanoma
UACC-62 melanoma = tested on: UACC-62 melanoma
UO-31 renal = tested on: UO-31 renal
786-0 renal = tested on: 786-0 renal
NCI-H226 lung = tested on: NCI-H226 lung

`COC(=O)C1=C(C(=O)OC)SC2(S1)C1=C(CCC1)SC(C(=O)OC)=C2C(=O)OC` showed a TGI (A498 renal) of 22.7 µM, a TGI (A549 NSCLC) of 32.8 µM and a TGI (ACHN renal) of 24.8 µM. It also gave a TGI (BT-549 breast) of 31.3 µM, a TGI (CAKI-1 renal) of 18.1 µM and a TGI (CCRF-CEM leukemia) of 12.5 µM. It also gave a TGI (COLO 205 colon) of 42 µM, a TGI (DU-145 prostate) of 15.8 µM and a TGI (EKVX NSCLC) of 29 µM. The TGI (HCC-2998 colon) was 33 µM, the TGI (HCT-116 colon) was 3.65 µM and the TGI (HCT-15 colon) was 21.5 µM. For the same compound, the TGI (HL-60(TB) leukemia) was greater than 100 µM, the TGI (HOP-62 NSCLC) was 26.2 µM and the TGI (HOP-92 NSCLC) was 22.5 µM. It also gave a TGI (HS 578T breast) of 35.4 µM, a TGI (HT29 colon) of 18.5 µM and a TGI (IGROV1 ovarian) of 26.6 µM. For the same compound, the TGI (K-562 leukemia) was greater than 100 µM, the TGI (KM12 colon) was 32.1 µM and the TGI (LOX IMVI melanoma) was 15.3 µM. It also gave a TGI (M14 melanoma) of 35.3 µM, a TGI (MALME-3M melanoma) of 36 µM and a TGI (MCF7 breast) of 22.4 µM. For the same compound, the TGI (MDA-MB-231 breast) was 33.4 µM, the TGI (MDA-MB-435) was 26 µM and the TGI (MDA-N) was 29.6 µM. For the same compound, the TGI (MOLT-4 leukemia) was 16.8 µM, the TGI (NCI-H23 lung) was 37 µM and the TGI (NCI-H460 lung) was 20.2 µM. For the same compound, the TGI (NCI-H522 lung) was 9.08 µM, the TGI (NCI/ADR-RES ovarian) was 39 µM and the TGI (OVCAR-3 ovarian) was 24.6 µM. It also gave a TGI (OVCAR-4 ovarian) of 28.9 µM, a TGI (OVCAR-5 ovarian) of 34.6 µM and a TGI (OVCAR-8 ovarian) of 24.6 µM. For the same compound, the TGI (PC-3 prostate) was 23.3 µM, the TGI (RPMI-8226 leukemia) was greater than 100 µM and the TGI (RXF 393 renal) was 16.7 µM. It also gave a TGI (SF-268 CNS) of 34.4 µM, a TGI (SF-295 CNS) of 28.9 µM and a TGI (SF-539 CNS) of 4.32 µM. It also gave a TGI (SK-MEL-2 melanoma) of 35.8 µM, a TGI (SK-MEL-28 melanoma) of 25.3 µM and a TGI (SK-MEL-5 melanoma) of 36 µM. It also gave a TGI (SK-OV-3 ovarian) of 30.5 µM, a TGI (SN12C renal) of 23.4 µM and a TGI (SNB-19 CNS) of 36.8 µM. It also gave a TGI (SW-620 colon) of 37.5 µM, a TGI (T-47D breast) of 46.3 µM and a TGI (TK-10 renal) of 29.1 µM. For the same compound, the TGI (U251 CNS) was 29.2 µM, the TGI (UACC-257 melanoma) was 31.8 µM and the TGI (UACC-62 melanoma) was 34 µM. For the same compound, the TGI (UO-31 renal) was 22.7 µM.
Compound `COc1ccccc1-c1cc(=O)c2c(C)cc(C)nc2[nH]1` has a GI50 (786-0 renal) greater than 100 µM, a TGI (786-0 renal) greater than 100 µM and a TGI (A498 renal) greater than 100 µM. For the same compound, the TGI (A549 NSCLC) was greater than 100 µM, the TGI (ACHN renal) was greater than 100 µM and the TGI (BT-549 breast) was greater than 100 µM. It also gave a TGI (CAKI-1 renal) greater than 100 µM, a TGI (CCRF-CEM leukemia) greater than 100 µM and a TGI (COLO 205 colon) greater than 100 µM. It also gave a TGI (DU-145 prostate) greater than 100 µM, a TGI (EKVX NSCLC) greater than 100 µM and a TGI (HCC-2998 colon) greater than 100 µM. It also gave a GI50 (HCT-116 colon) of 74.5 µM, a TGI (HCT-116 colon) greater than 100 µM and a TGI (HCT-15 colon) greater than 100 µM. It also gave a GI50 (HL-60(TB) leukemia) of 30.4 µM, a TGI (HL-60(TB) leukemia) greater than 100 µM and a TGI (HOP-62 NSCLC) greater than 100 µM. The TGI (HOP-92 NSCLC) was 94.4 µM, the TGI (HS 578T breast) was greater than 100 µM and the TGI (HT29 colon) was greater than 100 µM. It also gave a TGI (IGROV1 ovarian) greater than 100 µM, a TGI (K-562 leukemia) greater than 100 µM and a TGI (KM12 colon) greater than 100 µM. The TGI (LOX IMVI melanoma) was greater than 100 µM, the TGI (M14 melanoma) was greater than 100 µM and the TGI (MALME-3M melanoma) was greater than 100 µM. It also gave a TGI (MCF7 breast) greater than 100 µM, a TGI (MDA-MB-231 breast) greater than 100 µM and a GI50 (MDA-MB-435) of 32.1 µM. It also gave a TGI (MDA-MB-435) greater than 100 µM, a GI50 (MDA-N) of 33.2 µM and a TGI (MDA-N) greater than 100 µM. It also gave a TGI (MOLT-4 leukemia) greater than 100 µM, a TGI (NCI-H226 lung) greater than 100 µM and a TGI (NCI-H23 lung) greater than 100 µM. The GI50 (NCI-H460 lung) was 70.1 µM, the TGI (NCI-H460 lung) was greater than 100 µM and the TGI (NCI-H522 lung) was greater than 100 µM. It also gave a TGI (NCI/ADR-RES ovarian) greater than 100 µM, a GI50 (OVCAR-3 ovarian) of 64.2 µM and a TGI (OVCAR-3 ovarian) greater than 100 µM. It also gave a TGI (OVCAR-4 ovarian) greater than 100 µM, a TGI (OVCAR-5 ovarian) greater than 100 µM and a TGI (OVCAR-8 ovarian) greater than 100 µM. The GI50 (PC-3 prostate) was 48.3 µM, the TGI (PC-3 prostate) was greater than 100 µM and the TGI (RPMI-8226 leukemia) was greater than 100 µM. The TGI (RXF 393 renal) was greater than 100 µM, the TGI (SF-268 CNS) was greater than 100 µM and the GI50 (SF-295 CNS) was 53.1 µM. For the same compound, the TGI (SF-295 CNS) was greater than 100 µM, the TGI (SF-539 CNS) was greater than 100 µM and the TGI (SK-MEL-2 melanoma) was greater than 100 µM. For the same compound, the TGI (SK-MEL-28 melanoma) was greater than 100 µM, the GI50 (SK-MEL-5 melanoma) was 33.7 µM and the TGI (SK-MEL-5 melanoma) was greater than 100 µM. It also gave a TGI (SK-OV-3 ovarian) greater than 100 µM, a TGI (SN12C renal) greater than 100 µM and a TGI (SNB-19 CNS) greater than 100 µM. The TGI (SW-620 colon) was greater than 100 µM, the TGI (T-47D breast) was greater than 100 µM and the TGI (TK-10 renal) was greater than 100 µM. It also gave a GI50 (U251 CNS) greater than 100 µM, a TGI (U251 CNS) greater than 100 µM and a TGI (UACC-257 melanoma) greater than 100 µM. It also gave a TGI (UACC-62 melanoma) greater than 100 µM and a TGI (UO-31 renal) greater than 100 µM.
